pIC50, pKi: −log10 of the molar value.
What was measured:
ZR-75-1 cells [1] = experiment: Reversal of DFMO-induced growth inhibition by exogenous spermidine; format: cell-based, human; conditions: Homo sapiens, ZR-75-1, 264 h; 1 mM DFMO, 11-day incubation
Experimental: (§1) For growth studies, ZR-75-1 cells were cultured in MEZR medium or in phenol red-free RPMI 1640 supplemented with 2 mM L-glutamine, 1 mM sodium pyruvate, 15 mM Hepes, antibiotics, 1 nM 17β-estradiol, 0.5 μg of bovine insulin per ml and 5% (v/v) charcoal-treated fetal bovine serum (SD medium), as indicated in the text. When polyamines or polyamine analogs were added to serum-containing media, 1 mM aminoguanidine was added to inhibit bovine serum amine oxidase (BSAO) activity (Morgan, D. M. L. 1989, in The Physiology of Polyamines (Bachrach, U., and Heimer, Y. M. eds) Vol. I, pp. 203-229, CRC Press, Boca Raton). The effect of the transport inhibitors on cell growth was measured by incubating ZR-75-1 cells for 11 days in medium supplemented with antagonist, polyamines and/or 1 mM DFMO as indicated, followed by colorimetric determination of DNA content with 3,4-diaminobenzoic acid (Simard, J., Dauvois, S., Haagensen, D. E., Lėvesque C., Mėrand, Y. and Labriė, F. 1990. Endocrinology 126: 3223-3231).
This possibility was assessed by comparing the ability of DESC to prevent the reversal of DFMO-induced growth inhibition by increasing concentrations of exogenous spermidine.

polyamine transporter [2] = experiment: Inhibition of [3H]spermidine uptake in ZR-75-1 cells; format: cell-based, human; conditions: FIG. 32, 20 μM and 3 μM substrate, respectively, read-out: Apparent Ki, spermidine uptake
Experimental: (§2) The rate of putrescine and spermidine transport was determined in ZR-75-1 cells incubated in serum-free RPMI 1640 medium as described (Lessard, M., Zhao, C., Singh, S. M. and Poulin, R. 1995. J. Biol. Chem. 270: 1685-1694), using [^3H]putrescine (30 Ci/mol) and [^3H]spermidine (20 Ci/mol), respectively as substrates for a 20 minute-assay period. Spermine uptake was similarly determined, using 1 μM [^14C]spermine (32 Ci/mol) as substrate. Uptake activity was expressed per amount of DNA as fluorometrically determined using 3,4-diaminobenzoic acid (Simard, J., Dauvois, S., Haagensen, D. E., Lėvesque, C., Mėrand, Y. and Labrie, F. 1990. Endocrinology, 126: 3223-3231). For the determination of spermidine uptake activity in CHO-K1 cells, 80% confluent cell monolayers were rinsed twice with PBS and incubated for 20 minutes at 37° C. in 400 μl of buffer A (20 mM Tris-HCl, pH 7.4; 0.42 mM CaCl2; 0.41 mM MgSO4; 103 mM NaCl; 5.7 mM KCl; 1.1 mM D-glucose) containing 5 μM [^3H]spermidine (20 Ci/mol). Cell cultures were then washed twice with 1 ml PBS containing 5.7 mM sym-norspermidine. Cells were then lysed with 200-μl aliquot of 1 N NaOH and incubated for 30 minutes at 60° C. After neutralization with 200 μl of 1 N HCl, radioactivity was determined from a 250-μl of the cell lysate by scintillation counting. Uptake activity was expressed per amount of total cellular protein as determined by the method of Bradford (Bradford, M. M. 1976. Anal. Biochem. 72: 248-254). Non-specific binding of radioactive substrate was similarly determined in parallel for both cell lines after a 15 second-incubation with 400 μl of ice-cold uptake solution.
Kinetic analysis of polyamine transport was performed by determining uptake activity in the presence of a 3 μM [^3H]putrescine or 1 μM [^3H]spermidine plus increasing concentrations of nonradioactive substrate. K[…] Ki and Vmax values were then estimated by Lineweaver-Burke analysis. For competitive inhibitors, Ki values were also estimated by measuring uptake activity in the presence of logarithmically increasing concentrations of antagonist, and using the Cheng-Prusoff equation (Cheng, Y.-C. and Prusoff, W. H. 1973. Biochem. Pharmacol. 22: 3099-3108) by iterative curve fitting for a sigmoidal curve. For mixed competitive/noncompetitive inhibition, two methods were used to calculate kinetic constants. First, the equation [drawing 2] where v, s, and i are the transport velocity, substrate concentration and inhibitor concentration respectively, was used to calculate the inhibition constants for inhibitor/carrier complex formation (Ki) and carrier/inhibitor/substrate complex formation (Ki′) (Dixon, M. and Webb, E. C. 1976. Enzymes, 3rd Ed., Academic Press, San Diego, Calif.). […]
(§3) In order to evaluate the effectiveness of dimeric triamines as polyamine transport inhibitors, we synthesized N,N′-bis(3-aminopropyl),N,N′-bis(4-aminobutyl)cystamine or BABAC (structure 1, FIG. 25; FIG. 31), and its thiol form N-(3-aminopropyl),N-(4-aminobutyl)cysteamine or AAC (FIG. 31) according to Scheme 4 described above (FIG. 30), using spermidine as a precursor polyamine. The ability of BABAC and AAC to inhibit the intracellular uptake of radio-labeled putrescine and spermidine in the ZR-75-1 human breast cancer cell line was then determined according to standard published procedures (Lessard, et al. and Poulin, et al.) Briefly, ZR-75-1 cells were grown for four days in twenty-four well plates in RPMI 1640 medium supplemented with 10% fetal bovine serum.

polyamine transporter [3] = experiment: Inhibition of [14C]spermine uptake in ZR-75-1 cells; format: cell-based, human; conditions: FIG. 32, read-out: Apparent Ki, spermine uptake
Experimental: as §2, with “Spermine uptake was similarly determined, using 1 μM [^14C]spermine (32 Ci/mol) as substrate.” left out
(§4) Kinetic analysis of polyamine transport was performed by determining uptake activity in the presence of a 3 μM [^3H]putrescine or 1 μM [^3H]spermidine plus increasing concentrations of nonradioactive substrate. K[…] Ki and Vmax values were then estimated by Lineweaver-Burke analysis. For competitive inhibitors, Ki values were also estimated by measuring uptake activity in the presence of logarithmically increasing concentrations of antagonist, and using the Cheng-Prusoff equation (Cheng, Y.-C. and Prusoff, W. H. 1973. Biochem. Pharmacol. 22: 3099-3108) by iterative curve fitting for a sigmoidal curve. For mixed competitive/noncompetitive inhibition, two methods were used to calculate kinetic constants. First, the equation [drawing 2] where v, s, and i are the transport velocity, substrate concentration and inhibitor concentration respectively, was used to calculate the inhibition constants for inhibitor/carrier complex formation (Ki) and carrier/inhibitor/substrate complex formation (Ki′) (Dixon, M. and Webb, E. C. 1976. Enzymes, 3rd Ed., Academic Press, San Diego, Calif.). Alternatively, the value of Ki for a mixed competitor/non-competitor was estimated from the intersect of equations v^−1 vs i at two different substrate concentrations (Dixon, M. and Webb, E. C. 1976. Enzymes, 3rd Ed., Academic Press, San Diego, Calif.). Intracellular Accumulation
as §3

polyamine transporter [4] = experiment: Inhibition of [3H]putrescine uptake in ZR-75-1 cells; format: cell-based, human; conditions: ZR-75-1 cells, FIG. 32; 20 μM and 3 μM substrate, respectively; read-out: Apparent Ki, putrescine uptake
Experimental: as §2, §4, §3

in vitro = conditions: human
Excerpt: FIG. 34 represents the relative cytotoxicity of sym-norspermidine (NSpd), BABAC and TADAX in ZR-75-1 human breast cancer cells. Data are the mean±SD of triplicate determinations from a representative experiment.

ZR-75-1 cells [5] = experiment: Time course of intracellular [3H]spermidine accumulation in presence of transport antagonists; format: cell-based, human; conditions: 200 μM CHX, after 4 hours
Experimental: The time course of intracellular accumulation of spermidine in the presence of transport antagonists was determined by incubating ZR-75-1 cells in 24-well plates with DESC (50 or 200 μM) or MESC (200 μM) in dissolved in MEZR medium containing 5 μM [^3H]spermidine in the presence or absence of cycloheximide (CHX, 200 μM), and harvesting at the indicated times for the determination of intracellular radioactive contents, as described above for polyamine uptake assays.

polyamine transporter [6] = experiment: Inhibition of [3H]spermidine uptake in CHO-K1 cells; format: cell-based, Chinese hamster; conditions: MESC thioether derivatives
Experimental: To 1 ml of an extemporaneously prepared, DTT-free solution of MESC (20 mM in […]) were added 50 μl of 50 mM Tris-HCl (pH 7.0) and 105 μl of a 40 mM solution of either iodoacetamide, LY iodoacetamide or ASIB in a light-protected microcentrifuge tube, and the mixture was incubated for 2 hours at 37° C. […] Excess iodoacetamide was then inactivated by adding DTT to a final concentration of 40 mM and incubating the solution for 2 hours at 37° C. […] The effect of the respective DTT-inactivated iodoacetamide on spermidine transport was determined in parallel by incubating cells with the same reaction mixture from which MESC was omitted. […] J. Biol. […] Cells were then lysed with 200-μl aliquot of 1 N NaOH and incubated for 30 minutes at 60° C. After neutralization with 200 μl of 1 N HCl, radioactivity was determined from a 250-μl of the cell lysate by scintillation counting. Uptake activity was expressed per amount of total cellular protein as determined by the method of Bradford (Bradford, M. M. 1976. Anal. Biochem. 72: 248-254). […] K[…] Ki and Vmax values were then estimated by Lineweaver-Burke analysis. For competitive inhibitors, Ki values were also estimated by measuring uptake activity in the presence of logarithmically increasing concentrations of antagonist, and using the Cheng-Prusoff equation (Cheng, Y.-C. and Prusoff, W. H. 1973. Biochem. Pharmacol. 22: 3099-3108) by iterative curve fitting for a sigmoidal curve. For mixed competitive/noncompetitive inhibition, two methods were used to calculate kinetic constants. […] C. 1976. Enzymes, 3rd Ed., Academic Press, San Diego, Calif.). […] C. 1976. Enzymes, 3rd Ed., Academic Press, San Diego, Calif.). Intracellular Accumulation

ZR-75-1 cells [7] = experiment: Effect on ZR-75-1 cell proliferation (11 days, DNA content); format: cell-based, human; conditions: 1 mM
Experimental: as §1, with “3223-3231). Medium was changed every other day in these experiments because of the slow reaction of the compound with an unknown component present in the IMEM and RPMI 1640 medium formulation.” for “3223-3231).”
The biocompatibility of DESC, MESC, and DEASC was thus evaluated during a long-term (11-day) incubation with ZR-75-1 cells grown in RPMI 1640 containing 10% (v/v) FBS in the absence and presence of 1 mM aminoguanidine. […] Weak growth inhibition caused by the mixed MESC-cysteamine disulfide, however, apparently involved degradation by a copper amine oxidase.

Compound `NCCCC(N)(C(=O)O)C(F)F` (racemic) [DFMO, D,L-α-difluoromethylornithine] has an inhibition at 1000 µM (ZR-75-1 cells [1]) of about 50%.
In the case of `NCCCCN(CCS)CCCN` [AAC, N-(3-aminopropyl),N-(4-aminobutyl)cysteamine], the pKi (polyamine transporter [2]) was 5.36, the pKi (polyamine transporter [3]) was 5.41 and the pKi (polyamine transporter [4]) was 6.27.
Compound `NCCCCN(CCCN)CCSSCCN(CCCN)CCCCN` [BABAC, N,N′-bis(3-aminopropyl),N,N′-bis(4-aminobutyl)cystamine] has a pIC50 (in vitro; ZR-75-1 cells) of 4.77, a pKi (polyamine transporter [2]) of 6.17 and a pKi (polyamine transporter [3]) of 5.68. It also gave a pKi (polyamine transporter [4]) of 6.82.
For `C[C@@H]1C[C@@H]([C@H](O)CC2CC(=O)NC(=O)C2)C(=O)[C@@H](C)C1` [CHX, cycloheximide, reference compound], the “Increase in spermidine accumulation” value (ZR-75-1 cells [5]) was 4 fold.
For `[N-]=[N+]=Nc1ccc(C(=O)NCCCCNC(=O)CSCCNC(=O)C(CCCNCCCN)NCCCN)c(O)c1` (centres unmarked) [MESC-ASIB], the “Ki toward spermidine uptake compared with MESC” value (polyamine transporter [6]) was “virtually identical to that of MESC”.
For `NCCCNCCCC(NCCCN)C(=O)NCCSCC(=O)NCCN1C(=O)c2cc(S(=O)(=O)O)cc3c(N)c(S(=O)(=O)O)cc(c23)C1=O` (centres unmarked) [MESC-LY], the “Ki toward spermidine uptake compared with MESC” value (polyamine transporter [6]) was “virtually identical to that of MESC”.
For `NCCCNCCCC(NCCCN)C(=O)NCCSCC(N)=O` (centres unmarked) [MESC-acetamide], the “Ki toward spermidine uptake compared with MESC” value (polyamine transporter [6]) was “virtually identical to that of MESC”.
With `N=C(N)NN` [aminoguanidine, reference compound] the “Effect of aminoguanidine alone on cell growth” value (ZR-75-1 cells [7]) was “slight inhibitory effect”.
Work on `NCCCNCCCN` [sym-norspermidine, N-(3-aminopropyl)-1,3-diaminopropane, reference compound] yielded a pIC50 (in vitro) of 5.19.
